A short description of this data set: in vitro. To be noted: human, hela cells, % viability.

Data on 58 compounds can be found in article PMC12040169 (PLOS Biology, 2025).

A word on the viability: it is a read-out of living cells in per cent, often relative to untreated cells.

With `Cc1noc(C)c1NC(=O)c1ccnc2ccccc12` [CBK200302], the viability at 28.5 h, 10 µM stood at 96.3%.

In the case of `O=c1c2scc(-c3cccc(F)c3)c2ncn1Cc1ccc(F)cc1` [CBK287810], the viability at 28.5 h, 10 µM was 100%.

With `O=C1CCC(C(=O)Nc2cnc(-c3cccc(C(F)(F)F)c3)c(-c3cccnc3)n2)=NN1` [CBK036950], the viability at 28.5 h, 10 µM came to 88.3%.

With `CC(C)Oc1ccccc1-c1nnc(SCC(=O)O)[nH]1` [CBK262702], the viability at 28.5 h, 10 µM turned out to be 81.7%.

For `CN1CCC(=NNC(=O)CN(c2ccc(Oc3ccccc3)cc2)S(C)(=O)=O)CC1` [CBK262338], the viability at 28.5 h, 10 µM was 93.2%.

Turning to `COc1cccc2c1OC1(CCN(C(=O)Nc3ccc(F)cc3F)CC1)OC2` [CBK060689], the viability at 28.5 h, 10 µM (bulk resorufin, single well) worked out at 100%.

On to `CC(C)c1ccc(/C=C/C(=O)NCc2ccccc2)cc1` [CBK149635], for which the viability at 28.5 h, 10 µM worked out at 112%.

`c1ccc2c(c1)nc(N1CCNCC1)n1cnnc21` [CBK270145]: the viability at 28.5 h, 10 µM came out at 100%.

For `c1ccc(C2=NN=C(N3CCOCC3)SC2)cc1` [CBK006876G], the viability at 28.5 h, 10 µM is 97.3%.

Take `CC1CCN(c2ccc([N+](=O)[O-])c(N3CCC(C)CC3)c2)CC1` [CBK001367]: the viability at 28.5 h, 10 µM is 92.5%.

For `CNc1nc(C(C)(C)C)cs1` [CBK025373], the viability at 28.5 h, 10 µM came to 88.2%.

For the compound `Cc1ncccc1C(=O)NC(CC(C)C)c1nnc2n1CCNCC2` (stereo not shown) [CBK307348], the viability at 28.5 h, 10 µM is 80.5%.

Regarding `O=C(O)c1cn(C2CC2)c2cc(N3CCN(C(=O)C4CCCO4)CC3)c(F)cc2c1=O` (stereo not shown) [CBK297139], the viability at 28.5 h, 10 µM amounted to 97.7%.

On to `c1ccc(SCc2csc(-c3ccc4c(c3)OCO4)n2)nc1` [CBK270294], for which the viability at 28.5 h, 10 µM stood at 87.7%.

In the case of `Nc1nc(=O)c2cnc3ccc(C(=O)O)cc3c2s1` [CBK291239], the viability at 28.5 h, 10 µM is 96.7%.

Consider `Cc1cnccc1N1CCN(C(=O)CCCOc2ccccc2)CC1` [CBK304677], for which the viability at 28.5 h, 10 µM came to 94.8%.

In the case of `O=C(c1ccccc1)c1ccccc1-n1nccn1` [CBK013849], the viability at 28.5 h, 10 µM is 99%.

Take `Cn1c(=O)[nH]c(=O)c2c1nc(N1CCCCC1)n2CCCSc1nc2ccccc2s1` [CBK269550]: the viability at 28.5 h, 10 µM was found to be 103%.

Regarding `CC(CCCc1ccccc1)NC(=O)c1cc2c([nH]c1=O)CCC2` (stereo not shown) [CBK281528], the viability at 28.5 h, 10 µM worked out at 87.6%.

Consider `COc1cc(NC(=O)COc2cccc3ccccc23)c(C(=O)O)cc1OC` [CBK268253], for which the viability at 28.5 h, 10 µM worked out at 76.6%.

`O=C(NCC1CCCO1)C(=O)Nc1ccccc1F` (stereo not shown) [CBK263557]: the viability at 28.5 h, 10 µM came to 90.5%.

For the compound `COc1ccc(C2=NN(c3ccccc3)C(c3cn(-c4ccccc4)nc3-c3ccccc3)C2)cc1` (stereo not shown) [CBK263230], the viability at 28.5 h, 10 µM was 88.9%.

With `O=C(NCCn1nc(-c2cccs2)ccc1=O)c1ccccc1F` [CBK283835], the viability at 28.5 h, 10 µM was determined as 86.1%.

On to `Cc1ccc(S(=O)(=O)N2CCN(C(=O)CSc3nnc4sc5ccccc5n34)CC2)cc1` [CBK265961], for which the viability at 28.5 h, 10 µM worked out at 90.5%.

For the compound `Cn1cc(-c2nc(C3CCCCCN3C(=O)c3cc(Cl)c[nH]3)no2)cn1` (stereo not shown) [CBK306396], the viability at 28.5 h, 10 µM was 86.4%.

As for `O=C(Nc1cccnc1)c1cnc2cc(C(F)(F)F)ccc2c1O` [CBK107474], the viability at 28.5 h, 10 µM was 77.8%.

Regarding `CN(c1ncc(Br)cc1C(=O)Nc1ccc(C(F)(F)F)cc1)S(C)(=O)=O` [CBK076542], the viability at 28.5 h, 10 µM was found to be 93.3%.

Consider `CCOC(=O)c1cnc(SC)nc1NCCc1c[nH]c2cc(OC)ccc12` [CBK092317], for which the viability at 28.5 h, 10 µM is 87.6%.

For the compound `CC(=O)Nc1ccc(Nc2ncnc3scc(-c4ccccc4)c23)cc1` [CBK264930], the viability at 28.5 h, 10 µM was determined as 93.6%.

In the case of `CN(C)CCNC(=O)C1CCCN(c2nc3c(-c4ccccc4)csc3c(=O)[nH]2)C1` (stereo not shown) [CBK215501], the viability at 28.5 h, 10 µM turned out to be 88.3%.

`Cc1ncccc1COC(=O)NCCc1ccccn1` [CBK200137]: the viability at 28.5 h, 10 µM is 104%.

Consider `Cc1csc2c(C3CCCN(C(=O)c4ccncc4)C3)nc(C)n12` (stereo not shown) [CBK285213], for which the viability at 28.5 h, 10 µM amounted to 100%.

Regarding `O=C(Cn1nc(-c2ccco2)ccc1=O)Nc1ccccn1` [CBK287985], the viability at 28.5 h, 10 µM is 87.4%.

For `CC1CCCN(CC(C)NC(=O)Cn2cnc3ccc(F)cc3c2=O)C1` (stereo not shown) [CBK305953], the viability at 28.5 h, 10 µM was found to be 91.5%.

On to `CCn1c(CNC(=O)C(C)Cn2cc(Cl)cn2)nc2ccccc21` (stereo not shown) [CBK281392], for which the viability at 28.5 h, 10 µM amounted to 91.9%.

For the compound `CCOC(=O)c1cccc(NS(=O)(=O)c2ccc(-c3ccccc3)cc2)c1` [CBK034341], the viability at 28.5 h, 10 µM came to 92.8%.

Consider `Cc1cc(C)nc(SCC(=O)Nc2ccc(S(=O)(=O)NC3CCCCC3)cc2)n1` [CBK268299], for which the viability at 28.5 h, 10 µM was determined as 86%.

Regarding `CCOc1nc2c(c(C(F)(F)F)n1)CC(C)C/C2=C\c1ccccc1` (stereo not shown) [CBK265800], the viability at 28.5 h, 10 µM was 94.8%.

For the compound `O=C(Oc1ccccc1)c1cc(S(=O)(=O)N2CCOCC2)c(Cl)cc1Cl` [CBK269656], the viability at 28.5 h, 10 µM is 83.5%.

Take `COc1ccc(CNc2cc(/C=C/c3ccccc3)nc3ccnn23)cc1` [CBK037075]: the viability at 28.5 h, 10 µM was found to be 103%.

In the case of `COc1cccc(Cc2cccc(C3CCN(C(=O)Cc4ccccc4)CC3)n2)c1` [CBK286147], the viability at 28.5 h, 10 µM came out at 96.9%.

For the compound `CC(C)CN(C)CC(=O)NC1(c2ccccc2)CCC1` [CBK067455T], the viability at 28.5 h, 10 µM was 111%.

Take `CN(Cc1ccc(F)cc1F)C(=O)Cn1nc2n(c1=O)CCCCC2` [CBK304598]: the viability at 28.5 h, 10 µM stood at 86.3%.

In the case of `CCOC(=O)C1(c2ccccc2)CCN(C(=O)C(c2ccccc2)c2ccccc2)CC1` [CBK132202], the viability at 28.5 h, 10 µM (bulk resorufin, single well) came out at 100%.

In the case of `O=C(Nc1ccc2c(c1)OCO2)C1CCN(S(=O)(=O)c2ccc(Oc3ccccc3)cc2)CC1` [CBK269648], the viability at 28.5 h, 10 µM was determined as 85.1%.

`CCN(CC)CCOc1c(C)cc(Cl)cc1C` [CBK262219]: the viability at 28.5 h, 10 µM was 97%.

Take `COc1cc(C(=O)Nc2nc3c(C)cccc3s2)cc(OC)c1OC` [CBK287302]: the viability at 28.5 h, 10 µM turned out to be 98.5%.

For the compound `CSc1ccccc1CNC(=O)c1cc(Br)cnc1N(C)S(C)(=O)=O` [CBK076529], the viability at 28.5 h, 10 µM amounted to 96.7%.

With `COc1ccc2c(c1)C(O)CC1(CCN(CC(O)c3ccc(-c4ccccc4)cc3)CC1)O2` (stereo not shown) [CBK286398], the viability at 28.5 h, 10 µM stood at 101%.

As for `CCOc1cccc(-c2ccc(Nc3ccc(Oc4ccccc4)cc3)nc2)c1` [CBK037679], the viability at 28.5 h, 10 µM came out at 94.4%.

`Cc1nc(C2CCN(C(=O)C3CCC3)CC2)nc2c1CCCN2CCc1ccccc1` [CBK285645]: the viability at 28.5 h, 10 µM is 97.3%.

`CCN(C(=O)Nc1ccc(-c2ccco2)cc1)C1CCOCC1` [CBK306916]: the viability at 28.5 h, 10 µM stood at 95.8%.

Turning to `COc1cc(C)c(Cl)c(C)c1S(=O)(=O)NCc1ccc2c(c1)OCO2` [CBK266518], the viability at 28.5 h, 10 µM was found to be 96%.

On to `CCN(CC(=O)NCc1ccc(Cl)cc1)S(=O)(=O)c1ccc(OC)cc1` [CBK305836], for which the viability at 28.5 h, 10 µM was 92.6%.

Take `CCCC/C=C/c1cnc2[nH]c(=O)n(C3CCOCC3)c2n1` [CBK064253]: the viability at 28.5 h, 10 µM was found to be 98.1%.

Consider `O=C1CC2(CCCCC2)C(C(=O)O)N1` (stereo not shown) [CBK009895], for which the viability at 28.5 h, 10 µM worked out at 114%.

In the case of `Cc1nc(S)[nH]c(=O)c1Cc1ccc(F)cc1` [CBK288456], the viability at 28.5 h, 10 µM worked out at 107%.

On to `CC(C)(C)c1cc(C(=O)O)c(CN2CCOCC2)o1` [CBK264052], for which the viability at 28.5 h, 10 µM turned out to be 88.7%.
